# Laboratory results: patent publication US10344064B2, “Engineered potent cytotoxic stapled BH3 peptides” (The Trustees of Princeton University, priority 2012, dated 2019)
# Entries after “also recorded” stand apart in the source; their conditions may differ. Where two headings read alike, the source gives them in different places. Bridges are numbered along the chain shown (N, C = ends). Where no end group is shown, it is not given here. [ ]: non-standard residue; d: D form. S5 = C=CCCC[C@](C)(N)C(=O)O
# How the values were obtained:
# MCF7 cells = assay: MTT cytotoxicity assay of stapled peptides, MCF7; assay type: cell-based, human; settings: for cytotoxicity toward MCF7 cells (in words): stapled peptides, at the concentrations tested
# Experimental: (§1) HeLa, PC3, MCF7 and MDA231 cell lines were used to determine IC50 of each stapled peptide. All cells were cultured at 37° C. supplemented with 5% CO2. HeLa cells and PC3 cells were maintained in DMEM and RPMI 1640 media, respectively, supplemented with 10% FBS, 50 units/mL penicillin, and 50 μg/mL streptomycin. MCF7 cells were maintained in DME/F12 media with 2% FBS, 10 μg/ml insulin, and 50 μg/ml gentamicin. MDA-MB-231 cells were maintained in DME/F12 media supplemented with 10% FBS, 10 μg/ml insulin, and 50 μg/ml gentamicin. The cytotoxicity of stapled peptides was determined using an MTT (3-(4,5-Dimethylthiazol-2-yl)-2,5-diphenyltetrazolium bromide assay (Sigma). Cells were plated at a density of 1.5×10^4 cells per well in a 96-well plate. After 24 hours, the medium was replaced with serum-free medium containing stapled peptides. Serum was added after 4 hours, and cells were incubated for an additional 44 hours. After this incubation, 0.5 mg/ml of MTT was added to each well and incubated for 4 hours. The medium was aspirated and 200 μL of dimethyl sulfoxide (DMSO) was added to each well to solubilize the formazan crystals. The absorbance was measured at 570 nm with 690 nm as an internal reference using a GloMax-Multi Detection System (Promega). Experiments were performed three times independently with biological replicates. A four-parameter model was used to fit the experimental data and extract the IC50 value from killing assays, where log [ ] was the log value of the stapled peptide concentration. [formula] During fitting, “top” was always fixed at 100% viability, while “bottom,” log [IC50] and Hill slope were allowed to vary. In all cases, “bottom” came out to be 0. The R^2 values of all fits were above 0.9, while the majority was above 0.95.
# Bcl-2 = target: T1, Bcl-2 (Homo sapiens, UniProt P10415); assay: Apparent Kd by E. coli surface display and flow cytometry, Bcl-2; assay type: binding; settings: compared with wild-type peptide
# T1 construct: made in house; host or cells: E. coli BL21
# T1 sequence (P10415 whole entry): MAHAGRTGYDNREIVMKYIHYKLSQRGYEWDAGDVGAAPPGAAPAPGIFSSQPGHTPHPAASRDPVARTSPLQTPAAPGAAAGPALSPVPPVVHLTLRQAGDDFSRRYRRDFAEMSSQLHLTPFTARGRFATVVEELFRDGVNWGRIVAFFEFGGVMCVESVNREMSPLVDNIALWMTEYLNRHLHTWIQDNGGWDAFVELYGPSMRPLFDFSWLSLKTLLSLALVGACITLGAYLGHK
# Experimental: (§2) All binding assays were performed using MC1061 strain. Briefly, a 5 mL culture of a library sample or individual variant was grown to OD600˜0.6, and induced with arabinose (0.2%) at RT for 2.5 hours. Cells were pelleted (1 mL culture, 6000 rpm, 5 min) and resuspended in 1 mL PBS. A portion of the cell suspension (50 μL) was mixed with the desired concentration of pro-survival protein to a total volume of 500 μL. The mixture was allowed to rotate at room temperature for 1 hour for equilibrium binding. The cells were pelleted again (6000 rpm, 20 min), resuspended with 100 μL of 50 nM streptavidin-phycoerythrin (SAPE), and incubated on ice in the dark for 30 min. After a final centrifugation, the cell pellets were stored on ice and resuspended in 2 mL of PBS for flow cytometry measurements. A Partec CyFlow ML Flow Cytometer equipped with a 488 nm laser was used to analyze the cells. A FACSVantage SE cell sorter was used for cell sorting in single cell mode.
# (§3) A two parameter model was used to extract apparent binding affinity (Kd) from flow cytometry binding experiments.
# Bcl-xL = target: T2, Bcl-xL (Homo sapiens, UniProt Q07817); assay: Apparent Kd by E. coli surface display and flow cytometry, Bcl-xL; assay type: binding; settings: for binding to Bcl-xL (in words): compared with wild-type peptide; for increase in apparent affinity toward Bcl-xL: relative to wild-type Bim 14-mer
# T2 construct: made in house; host or cells: E. coli BL21
# T2 sequence (Q07817 whole entry): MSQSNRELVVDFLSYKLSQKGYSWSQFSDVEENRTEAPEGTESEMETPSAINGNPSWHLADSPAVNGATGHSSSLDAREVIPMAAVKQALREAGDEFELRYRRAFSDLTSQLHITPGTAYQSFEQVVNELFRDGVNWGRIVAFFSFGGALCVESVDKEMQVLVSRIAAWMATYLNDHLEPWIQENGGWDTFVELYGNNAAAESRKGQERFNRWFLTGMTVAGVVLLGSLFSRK
# Experimental: as §2, §3
# Mcl-1 = target: T3, Mcl-1 (Homo sapiens, UniProt Q07820); assay: Apparent Kd by E. coli surface display and flow cytometry, Mcl-1; assay type: binding
# T3 construct: made in house; host or cells: E. coli BL21
# T3 sequence (Q07820 whole entry): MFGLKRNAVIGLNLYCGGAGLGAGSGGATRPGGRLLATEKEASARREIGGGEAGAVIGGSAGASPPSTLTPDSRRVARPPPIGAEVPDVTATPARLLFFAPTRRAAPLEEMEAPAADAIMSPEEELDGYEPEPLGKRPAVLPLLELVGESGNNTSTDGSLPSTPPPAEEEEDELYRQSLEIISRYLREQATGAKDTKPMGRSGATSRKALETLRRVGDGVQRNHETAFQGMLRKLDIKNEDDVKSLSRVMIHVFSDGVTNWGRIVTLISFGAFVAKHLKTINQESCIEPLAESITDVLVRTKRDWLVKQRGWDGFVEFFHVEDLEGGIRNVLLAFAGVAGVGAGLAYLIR
# Experimental: as §2, §3
# A1 = assay: Apparent Kd by E. coli surface display and flow cytometry, A1; assay type: binding; settings: for Kd: Table 3, apparent Kd, unstapled 14-mer displayed on E. coli (eCPX); for affinity improvement toward A1: relative to wild-type Bim 14-mer
# Experimental: as §2, §3
# Bcl-w = target: T4, Bcl-w (Homo sapiens, UniProt Q92843); assay: Apparent Kd by E. coli surface display and flow cytometry, Bcl-w; assay type: binding; settings: compared with wild-type peptide
# T4 construct: made in house; host or cells: E. coli BL21
# T4 sequence (Q92843 1-193): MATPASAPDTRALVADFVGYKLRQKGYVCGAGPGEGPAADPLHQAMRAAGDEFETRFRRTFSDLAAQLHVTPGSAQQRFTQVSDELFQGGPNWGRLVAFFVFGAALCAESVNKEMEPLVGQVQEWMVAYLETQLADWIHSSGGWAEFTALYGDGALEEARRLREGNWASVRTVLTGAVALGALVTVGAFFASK
# Experimental: as §2, §3
# MDA231 cells = assay type: cell-based, human
# Experimental: as §1
# PC3 cells = assay type: cell-based, human
# Experimental: as §1
# HeLa cells [1] = assay type: cell-based, human
# Experimental: as §1
# [2] = system: HeLa, PC3, MCF7 and MDA231 cell lines; assay: MTT cytotoxicity assay of stapled peptides, all four cancer cell lines; assay type: cell-based, human; settings: for cytotoxicity against the four cancer cell lines (in words): stapled pseudo-wild-type peptide
# Experimental: as §1
# HeLa cells [3] = assay: Peptide uptake by fluorescence microscopy; assay type: cell-based, human; settings: 5 μM, imaged after 2.5 hours
# Experimental: (§4) To study the uptake of fluorescein-labeled M2-4 stapled peptide (Fl-M2-4), HeLa cells were cultured in DMEM with 10% FBS and antibiotics as described above. The peptide was added to a final concentration of 5 μM in fresh DMEM without serum supplementation. Cellular uptake of FI-M2-4 was visualized using a Hamamatsu Orca CCD camera attached to a Nikon Eclipse Ti microscope after 2.5 hours of incubation. Cells were fixed using 4% paraformaldehyde and counterstained with Hoechst 33342. For the TUNEL assay, HeLa cells were plated on a fibronectin-treated coverslip and incubated with 5 μM unlabeled M2-4 peptide for 5 hours. The cells were then fixed using 4% paraformaldehyde and permeabilized with 0.25% Triton X-100 in PBS. The TUNEL assay (Click-it Alexa-Fluor 594, Invitrogen) was carried out according to the manufacturer's recommendations including counterstaining cell nuclei with Hoechst 33342. Images were acquired using a Hamamatsu Orca CCD camera attached to a Nikon Eclipse Ti microscope. All images were processed with ImageJ software.
# HeLa cells [4] = assay: TUNEL assay; assay type: cell-based, human; settings: 5 μM, 5 hours
# Experimental: as §4
# PC3 = settings: cisplatin, values from reference 33-36; cited from earlier work
# MDA231 = settings: cisplatin, values from reference 33-36; cited from earlier work
# MCF7 = settings: cisplatin, values from reference 33-36; cited from earlier work
# HeLa = settings: cisplatin, values from reference 33-36; cited from earlier work
# [5] = Table 2, apparent Kd, unstapled 14-mer displayed on E. coli (eCPX), read-out: Kd vs. Mcl-1
# [6] = Table 3, apparent Kd, unstapled 14-mer displayed on E. coli (eCPX), read-out: Kd (nM) Mcl-1
compound,measurement,setting,value
"CC[C@H](C)[C@@H]1NC(=O)[C@@](C)(NC(=O)[C@H](CCCNC(=N)N)NC(=O)[C@H](CC(C)C)NC(=O)[C@H](CC(C)C)NC(=O)[C@H](CCC(N)=O)NC(=O)[C@H](C)NC(=O)[C@@H](NC(=O)[C@@H](N)Cc2c[nH]c3ccccc23)C(C)C)CCCC=CCCC[C@@](C)(C(=O)N[C@H](C(=O)N[C@@H](CC(N)=O)C(N)=O)C(C)C)NC(=O)[C@H](CC(=O)O)NC(=O)CNC1=O [M2-2, Trp-Val-Ala-Gln-Leu-Leu-Arg-Arg-Ile-Gly-Asp-Glu-Val-Asn]",IC50,MCF7 cells,5.7 µM
same,binding to Bcl-2 (in words),Bcl-2,lost the ability to bind
same,binding to Bcl-xL (in words),Bcl-xL,lost the ability to bind
same,Kd,Mcl-1; [5],5.8 nM
same,Kd,Mcl-1; [6],5.8 nM
same,Kd,"Mcl-1; displayed unstapled 14-mer, read-out: apparent Kd against Mcl-1",5.8 nM
same,increase in apparent affinity toward Mcl-1,Mcl-1; relative to wild-type Bim 14-mer,6 fold
same,Kd,A1,9.99 nM
same,affinity improvement toward A1,A1,3 fold
same,binding to Bcl-w (in words),Bcl-w,lost the ability to bind
same,IC50,MDA231 cells,3.7 µM
same,IC50,PC3 cells,4.7 µM
same,IC50,HeLa cells [1],6.1 µM
same,IC50,[2],< 6.2 µM
"CC[C@H](C)[C@H](NC(=O)[C@@H](N)Cc1c[nH]c2ccccc12)C(=O)N[C@@H](C)C(=O)N[C@@H](CCC(N)=O)C(=O)N[C@@H](CCC(N)=O)C(=O)N[C@@H](CC(C)C)C(=O)N[C@@H](CCCNC(=N)N)C(=O)N[C@@]1(C)CCCC=CCCC[C@@](C)(C(=O)N[C@@H](Cc2ccccc2)C(=O)N[C@@H](CC(N)=O)C(N)=O)NC(=O)[C@H](CC(=O)O)NC(=O)CNC(=O)[C@H]([C@@H](C)CC)NC1=O (single isomer, unassigned) [stapled E151Q]",IC50,[2],10 to 150 µM
same,cytotoxicity against the four cancer cell lines (in words),[2],only modest cytotoxicity; also recorded: measurable but modest cytotoxicity
same,cytotoxicity against the four cancer cell lines (in words),[2]; listed as pseudo-wild-type Bim peptide,only modest cytotoxicity
"WIAQELRRIGDEFN [WT, reference compound]",Kd,A1,26.9 nM
"CC[C@H](C)[C@H](NC(=O)[C@@H](N)Cc1c[nH]c2ccccc12)C(=O)N[C@@H](C)C(=O)N[C@@H](CCC(N)=O)C(=O)N[C@@H](CCC(N)=O)C(=O)N[C@@H](CC(C)C)C(=O)N[C@@H](CCCNC(=N)N)C(=O)N[C@@]1(C)CCCC=CCCC[C@@](C)(C(=O)N[C@@H](Cc2ccccc2)C(=O)N[C@@H](CC(N)=O)C(N)=O)NC(=O)[C@H](CC(=O)O)NC(=O)CNC(=O)[C@H]([C@@H](C)CC)NC1=O (single isomer, unassigned) [E151Q]",IC50,MCF7 cells,35.7 µM
same,increase in apparent affinity toward Bcl-xL,Bcl-xL,5 fold
same,Kd,A1,29.6 nM
same,IC50,MDA231 cells,20 µM
same,IC50,PC3 cells,9.5 µM
same,IC50,HeLa cells [1],150 µM
stapled M2-4: stapled version of M2-4; positions 8 and 12 replaced by olefinic amino acids and crosslinked (WLAQLLR[S5]IGD[S5]IN-NH2; staple 8-12),cellular uptake (in words),HeLa cells [3],taken up
same,apoptosis / DNA fragmentation by TUNEL (in words),HeLa cells [4],DNA fragmentation
same,apoptosis / DNA fragmentation by TUNEL (in words),HeLa cells [4]; listed as M2-4 stapled peptide,causes apoptosis
"CC(C)C[C@H](NC(=O)[C@H](CCC(N)=O)NC(=O)[C@H](C)NC(=O)[C@H](CC(C)C)NC(=O)[C@@H](N)Cc1c[nH]c2ccccc12)C(=O)N[C@@H](CC(C)C)C(=O)N[C@@H](CCCNC(=N)N)C(=O)N[C@@]1(C)CCCC=CCCC[C@@](C)(C(=O)N[C@@H](Cc2ccccc2)C(=O)N[C@@H](CC(N)=O)C(N)=O)NC(=O)[C@H](CC(=O)O)NC(=O)CNC(=O)[C@H](Cc2ccc(O)cc2)NC1=O [X2-8, Trp-Leu-Ala-Gln-Leu-Leu-Arg-Arg-Tyr-Gly-Asp-Glu-Phe-Asn]",cytotoxicity toward MCF7 cells (in words),MCF7 cells,no cytotoxicity
same,Kd,A1,40.5 nM
same,IC50,MDA231 cells,18.3 µM
same,IC50,PC3 cells,14.9 µM
same,IC50,HeLa cells [1],55 µM
"CC[C@H](C)[C@@H]1NC(=O)[C@@](C)(NC(=O)[C@H](CCCNC(=N)N)NC(=O)[C@H](CC(C)C)NC(=O)[C@H](CC(C)C)NC(=O)[C@H](CCC(N)=O)NC(=O)[C@H](C)NC(=O)[C@H](CC(C)C)NC(=O)[C@@H](N)Cc2c[nH]c3ccccc23)CCCC=CCCC[C@@](C)(C(=O)N[C@H](C(=O)N[C@@H](CC(N)=O)C(N)=O)[C@@H](C)CC)NC(=O)[C@H](CC(=O)O)NC(=O)CNC1=O [M2-4, Trp-Leu-Ala-Gln-Leu-Leu-Arg-Arg-Ile-Gly-Asp-Glu-Ile-Asn]",binding to Bcl-2 (in words),Bcl-2,maintaining wild-type affinity
same,binding to Bcl-xL (in words),Bcl-xL,maintaining wild-type affinity
same,Kd,Mcl-1; [5],9.85 nM
same,Kd,Mcl-1; [6],9.85 nM
same,Kd,A1,4.18 nM
same,affinity improvement toward A1,A1,6 fold
same,binding to Bcl-w (in words),Bcl-w,maintaining wild-type affinity
same,decrease in IC50 relative to the pseudo-wild-type peptide,"HeLa cells [1]; HeLa cells, stapled peptides",~150 fold
same,IC50,[2],< 6.2 µM
"CC(C)C[C@H](NC(=O)[C@H](Cc1c[nH]c2ccccc12)NC(=O)[C@H](CCC(N)=O)NC(=O)[C@H](C)NC(=O)[C@@H](NC(=O)[C@@H](N)Cc1c[nH]c2ccccc12)C(C)C)C(=O)N[C@@H](CCCNC(=N)N)C(=O)N[C@@]1(C)CCCC=CCCC[C@@](C)(C(=O)N[C@@H](Cc2ccccc2)C(=O)N[C@@H](CC(N)=O)C(N)=O)NC(=O)[C@H](CC(=O)O)NC(=O)CNC(=O)[C@H](Cc2c[nH]c3ccccc23)NC1=O [X2-3, Trp-Val-Ala-Gln-Trp-Leu-Arg-Arg-Trp-Gly-Asp-Glu-Phe-Asn]",cytotoxicity toward MCF7 cells (in words),MCF7 cells,no cytotoxicity
same,increase in apparent affinity toward Bcl-xL,Bcl-xL,25 fold
same,Kd,A1,30.2 nM
same,IC50,MDA231 cells,10.5 µM
same,IC50,PC3 cells,17.9 µM
same,IC50,HeLa cells [1],51.3 µM
"N.N.[Cl][Pt][Cl] [Cisplatin, cisplatin]",IC50,PC3,5.6 µM
same,IC50,MDA231,~10 µM
same,IC50,MCF7,5 µM
same,IC50,HeLa,1.34 µM
